Patent publication US10766884B2 (Pfizer Inc., priority 2018, dated 2020)

Assays:
CDK6/Cyclin D3 = CDK6/Cyclin D3 (Homo sapiens (Human), UniProt Q00534); test: CDK6/Cyclin D3 mobility shift assay; format: biochemical; settings: activated CDK6/Cyclin D3, 3.5 mM ATP, Morrison fit; read-out: CDK6_D3 Ki
CDK6 = CDK6 (Homo sapiens (Human), UniProt Q00534); test: Phospho-Serine 795 Rb ELISA assay in MV4-11 cells; format: cell-based; settings: overnight treatment, phospho-Rb S795, read-out: CDK6 pRB S795 ELISA MV4-11 cells IC50
CDK4 = CDK4 (Homo sapiens (Human), UniProt P11802); test: Phospho-Serine 795 Rb ELISA assay in JEKO-1 cells; format: cell-based; settings: overnight treatment, phospho-Rb S795, read-out: CDK4 pRB S795 ELISA JEKO-1 cells IC50
CDK4/Cyclin D1 = CDK4/Cyclin D1 (Homo sapiens (Human), UniProt P11802); test: CDK4/Cyclin D1 mobility shift assay; format: biochemical; settings: activated CDK4/Cyclin D1, 3.5 mM ATP, Morrison fit; read-out: CDK4D1 Ki
Sequence of CDK4/Cyclin D1 (P11802 whole entry): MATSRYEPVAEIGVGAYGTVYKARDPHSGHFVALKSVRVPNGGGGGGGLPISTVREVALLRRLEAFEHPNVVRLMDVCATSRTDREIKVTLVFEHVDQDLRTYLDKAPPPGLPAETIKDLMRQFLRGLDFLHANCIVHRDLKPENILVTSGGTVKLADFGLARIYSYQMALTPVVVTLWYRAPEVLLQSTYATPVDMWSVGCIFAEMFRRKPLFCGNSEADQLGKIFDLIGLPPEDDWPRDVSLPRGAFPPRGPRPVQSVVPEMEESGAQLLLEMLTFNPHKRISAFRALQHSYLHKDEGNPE
Sequence of CDK4/Cyclin D1 (P24385 whole entry partner): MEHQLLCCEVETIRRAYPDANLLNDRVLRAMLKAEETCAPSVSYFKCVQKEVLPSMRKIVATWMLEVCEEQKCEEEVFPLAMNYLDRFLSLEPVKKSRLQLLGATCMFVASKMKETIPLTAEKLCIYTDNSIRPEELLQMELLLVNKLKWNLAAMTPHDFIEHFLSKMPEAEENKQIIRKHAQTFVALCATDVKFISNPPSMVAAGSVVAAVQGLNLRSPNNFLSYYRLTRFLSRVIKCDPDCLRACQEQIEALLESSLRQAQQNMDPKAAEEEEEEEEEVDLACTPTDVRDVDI

Sequence of CDK4 (P11802 2-303): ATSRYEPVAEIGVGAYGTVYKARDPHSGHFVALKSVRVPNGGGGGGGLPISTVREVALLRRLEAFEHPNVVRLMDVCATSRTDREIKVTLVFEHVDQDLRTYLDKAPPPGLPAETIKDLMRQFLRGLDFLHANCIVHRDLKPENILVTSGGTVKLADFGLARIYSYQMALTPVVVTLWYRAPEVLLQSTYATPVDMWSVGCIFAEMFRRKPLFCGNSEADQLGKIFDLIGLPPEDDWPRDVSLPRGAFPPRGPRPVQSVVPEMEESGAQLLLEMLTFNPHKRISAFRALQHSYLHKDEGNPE
Sequence of CDK4 (P24385 whole entry partner): as the sequence (P24385 whole entry partner) above
Sequence of CDK6/Cyclin D3 (Q00534 whole entry): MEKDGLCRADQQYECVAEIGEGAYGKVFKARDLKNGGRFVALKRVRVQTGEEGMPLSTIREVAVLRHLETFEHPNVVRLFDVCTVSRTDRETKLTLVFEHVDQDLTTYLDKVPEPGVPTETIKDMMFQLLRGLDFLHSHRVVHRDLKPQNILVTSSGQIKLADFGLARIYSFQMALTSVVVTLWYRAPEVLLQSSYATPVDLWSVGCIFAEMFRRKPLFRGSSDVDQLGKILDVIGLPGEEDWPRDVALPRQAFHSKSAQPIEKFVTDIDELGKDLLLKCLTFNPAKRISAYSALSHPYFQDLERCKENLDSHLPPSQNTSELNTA
Sequence of CDK6/Cyclin D3 (P30281 whole entry partner): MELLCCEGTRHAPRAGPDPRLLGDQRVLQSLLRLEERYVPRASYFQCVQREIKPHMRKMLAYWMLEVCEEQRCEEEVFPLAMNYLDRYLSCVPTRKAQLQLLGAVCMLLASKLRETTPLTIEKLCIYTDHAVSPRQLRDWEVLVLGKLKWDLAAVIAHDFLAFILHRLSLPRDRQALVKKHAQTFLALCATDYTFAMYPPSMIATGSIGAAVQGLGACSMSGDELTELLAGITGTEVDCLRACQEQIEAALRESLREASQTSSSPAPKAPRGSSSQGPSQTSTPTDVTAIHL
Sequence of CDK6 (Q00534 whole entry): as the sequence (Q00534 whole entry) above
Sequence of CDK6 (P30281 whole entry partner): as the sequence (P30281 whole entry partner) above

SMILES	Ki (CDK6/Cyclin D3) [nM]	IC50 (CDK6) [nM]	IC50 (CDK4) [nM]	Ki (CDK4/Cyclin D1) [nM]
CC(C)NCc1nc2c(F)cc(-c3nc(N[C@@H]4CCOC[C@H]4O)ncc3Cl)cc2n1C(C)C [Example H08, 1,5-anhydro-3-({5-chloro-4-[4-fluoro-1-(propan-2-yl)-2-{[(propan-2-yl)amino]methyl}-1H-benzimidazol-6-yl]pyrimidin-2-yl}amino)-2,3-dideoxy-D-threo-pentitol]	44.5	306	35.6	1.2
CC(C)n1c(CNC2COC2)nc2c(F)cc(-c3nc(N[C@@H]4CCN(S(C)(=O)=O)C[C@H]4O)ncc3Cl)cc21 [Example H09, (3R,4R)-4-({5-chloro-4-[4-fluoro-2-{[(oxetan-3-yl)amino]methyl}-1-(propan-2-yl)-1H-benzimidazol-6-yl]pyrimidin-2-yl}amino)-1-(methanesulfonyl)piperidin-3-ol]	18.6	230	205	0.9
CC(C)NCc1nc2c(F)cc(-c3nc(N[C@@H]4CCN(S(C)(=O)=O)C[C@H]4O)ncc3Cl)cc2n1C(C)C [Example H10, (3R,4R)-4-({5-chloro-4-[4-fluoro-1-(propan-2-yl)-2-{[(propan-2-yl)amino]methyl}-1H-benzimidazol-6-yl]pyrimidin-2-yl}amino)-1-(methanesulfonyl)piperidin-3-ol]	16.4	51.1	14.9	0.5
CC(C)n1c(CNC2CC2)nc2c(F)cc(-c3nc(N[C@@H]4CCOC[C@H]4O)ncc3Cl)cc21 [Example H11, 1,5-anhydro-3-[(5-chloro-4-{2-[(cyclopropylamino)methyl]-4-fluoro-1-(propan-2-yl)-1H-benzimidazol-6-yl}pyrimidin-2-yl)amino]-2,3-dideoxy-D-threo-pentitol]	22.1	295	43.4	0.7
